Earlier results in PubChem BioAssay AID1259409 (Chemical Carcinogenesis Research Information System (CCRIS), 2018).

Test system: rodent chemically induced tumor inhibition, incidence and multiplicity
Assay: CCRIS tumor inhibitor studies

C=CCSCC=C
tumour outcome (control, treated, inhibition, significance) (Carcinogen: 4-(METHYLNITROSAMINO)-1-(3-PYRIDYL)-1-BUTANONE, 64091-91-4, Dose [Inhibitor]: 0, 200 MG/KG BW IN CORN OIL FOR 3 D PRIOR TO CARCINOGEN TREATMENT (STUDY DURATION: 16 WK), Route [Inhibitor]: ORAL, Species: MOUSE, Strain/Sex: STRAIN-A/FEMALE, Target Tissue: Type of Lesion: LUNG: TUMOR, Dose [Carcinogen]: 100 MG/KG BW ONCE, Promoter: NONE USED): 100%, 38%, 62%, not calculated
tumour outcome (control, treated, inhibition, significance) (Carcinogen: 4-(METHYLNITROSAMINO)-1-(3-PYRIDYL)-1-BUTANONE, 64091-91-4, Dose [Inhibitor]: 0, 200 MG/KG/BW IN CORN OIL 1/D FOR 3 DAY PRIOR TO CARCINOGEN DOSE (STUDY DURATION: 16 WK), Route [Inhibitor]: ORAL, Species: MOUSE, Strain/Sex: STRAIN-A/FEMALE, Target Tissue: Type of Lesion: LUNG: TUMOR, Dose [Carcinogen]: 2 MG ONCE ADMINISTERED 2 HR POST LAST AGENT DOSE, Promoter: NONE USED): 100%, 38%, 62%, p<0.05
tumour outcome (control, treated, inhibition, significance) (Carcinogen: 7,12-DIMETHYLBENZ[A]ANTHRACENE, 57-97-6, Dose [Inhibitor]: 0, 1.8 MMOL/KG BW IN CORN OIL 96, 48 AND 24 HR PRIOR TO CARCINOGEN TREATMENT (STUDY DURATION: 25 WK), Route [Inhibitor]: GAVAGE, Species: RAT, Strain/Sex: SPRAGUE-DAWLEY/FEMALE, Target Tissue: Type of Lesion: MAMMARY GLAND: ADENOCARCINOMA, Dose [Carcinogen]: 10 MG ONCE, Promoter: NONE USED): 92%, 56%, 39%, p<0.05
tumour outcome (control, treated, inhibition, significance) (Carcinogen: ARISTOLOCHIC ACID, 313-67-7, Dose [Inhibitor]: 0, 150 MG/KG BW ADMINISTERED 4 HR PRIOR TO EACH CARCINOGEN DOSE 2/WK FOR 12 WK (STUDY DURATION: 46 WK), Route [Inhibitor]: GAVAGE, Species: RAT, Strain/Sex: BD-6/MALE, Target Tissue: Type of Lesion: FORESTOMACH: CARCINOMA OR SARCOMA, Dose [Carcinogen]: 10 MG/KG BW 2/WK FOR 12 WK, Promoter: NONE USED): 9/20 (45%), 2/20 (10%), 78%, p<0.01
tumour outcome (control, treated, inhibition, significance) (Carcinogen: ARISTOLOCHIC ACID, 313-67-7, Dose [Inhibitor]: 0, 150 MG/KG BW ADMINISTERED 24 AND 4 HR PRIOR TO EACH CARCINOGEN DOSE FOR 12 WK (STUDY DURATION: 46 WK), Route [Inhibitor]: GAVAGE, Species: RAT, Strain/Sex: BD-6/MALE, Target Tissue: Type of Lesion: FORESTOMACH: CARCINOMA OR SARCOMA, Dose [Carcinogen]: 10 MG/KG BW 2/WK FOR 12 WK, Promoter: NONE USED): 11/25 (44%), 0/20 (0%), 100%, p<0.001
tumour outcome (control, treated, inhibition, significance) (Carcinogen: BENZO[A]PYRENE [50-32-8], Dose [Inhibitor]: 0, 200 MG/KG BW IN TRIOCTANOIN 1 D AND 2 HR PRIOR TO CARCINOGEN DOSE (STUDY DURATION: 21 WK), Route [Inhibitor]: GAVAGE, Species: MOUSE, Strain/Sex: CD-1/FEMALE, Target Tissue: Type of Lesion: SKIN: PAPILLOMA, Dose [Carcinogen]: 0.3 UMOL IN 0.2 ML ACETONE ONCE, Promoter: 12-O-TETRADECANOYLPHORBOL-13-ACETATE [16561-29-8]): 92%, 73%, 21%, not calculated
tumour outcome (control, treated, inhibition, significance) (Carcinogen: BENZO[A]PYRENE [50-32-8], Dose [Inhibitor]: 200 MG/KG IN 10 µL TRIOCTANOIN ONCE 1 D AND 2 HR PRIOR TO CARCINOGEN DOSE (STUDY DURATION: 21 WK), Route [Inhibitor]: GAVAGE, Species: MOUSE, Strain/Sex: CD-1/FEMALE, Target Tissue: Type of Lesion: SKIN: PAPILLOMA, Dose [Carcinogen]: 0.3 UMOL IN 0.2 ML ACETONE ONCE (STUDY DURATION: 21 WK), Promoter: 12-O-TETRADECANOYLPHORBOL-13-ACETATE [16561-29-8]): 92%, 74%, 20%, not calculated
tumour outcome (control, treated, inhibition, significance) (Carcinogen: DIETHYLNITROSAMINE, 55-18-5, Dose [Inhibitor]: 0, 150 MG/KG BW BY INTRAPERITONEAL INJECTION ON DAYS 13, 14 AND 15 OF AGE THEN 1 G/KG DIET FROM 21 TO 161 DAYS OF AGE (S, Route [Inhibitor]: INTRAPERITONEAL, ORAL, Species: MOUSE, Strain/Sex: C3H/MALE, Target Tissue: Type of Lesion: LIVER: ADENOMA, Dose [Carcinogen]: 4 MG/KG IN TRICAPRYLIN ONCE ON DAY 15 OF AGE, Promoter: NONE USED): 100%, 97%, 3%, not significant
tumour outcome (control, treated, inhibition, significance) (Carcinogen: DIETHYLNITROSAMINE, 55-18-5, N-METHYL-N-NITROSOUREA, 684-93-5, N,N'-DIMETHYLHYDRAZINE, 540-73-8, N-BUTYL-N-(4-HYDR, Carcinogen: DIETHYLNITROSAMINE, 55-18-5, N-METHYL-N-NITROSOUREA, 684-93-5, N,N'-DIMETHYLHYDRAZINE, 540-73-8, N-BUTYL-N-(4-HYDR, Dose [Inhibitor]: 0, 200 MG/KG BW IN CORN OIL 3/WK FOR 6 WK BEGINNING POST CARCINOGEN TREATMENT (STUDY DURATION: 28 WK), Route [Inhibitor]: GAVAGE, Species: RAT, Strain/Sex: F344/MALE, Target Tissue: Type of Lesion: KIDNEY: RENAL CELL ADENOMA, Dose [Carcinogen]: 100 MG/KG BW DEN ONCE, 20 MG/KG BW MNU ONCE ON D 2, 5, 8 AND 11, 40 MG/KG BW DMH ON D 14, 17, 20 AND 23, 0.05% BHBN I, Dose [Carcinogen]: 100 MG/KG BW DEN ONCE, 20 MG/KG BW MNU ONCE ON D 2, 5, 8 AND 11, 40 MG/KG BW DMH ON D 14, 17, 20 AND 23, 0.05% BHBN I, Promoter: NONE USED): 4/20 (20%), 4/19 (21%), -5%, not significant
tumour outcome (control, treated, inhibition, significance) (Carcinogen: DIETHYLNITROSAMINE, 55-18-5, N-METHYL-N-NITROSOUREA, 684-93-5, N,N'-DIMETHYLHYDRAZINE, 540-73-8, N-BUTYL-N-(4-HYDR, Carcinogen: DIETHYLNITROSAMINE, 55-18-5, N-METHYL-N-NITROSOUREA, 684-93-5, N,N'-DIMETHYLHYDRAZINE, 540-73-8, N-BUTYL-N-(4-HYDR, Dose [Inhibitor]: 0, 200 MG/KG BW IN CORN OIL 3/WK FOR 6 WK BEGINNING POST CARCINOGEN TREATMENT (STUDY DURATION: 28 WK), Route [Inhibitor]: GAVAGE, Species: RAT, Strain/Sex: F344/MALE, Target Tissue: Type of Lesion: LARGE INTESTINE: ADENOMA, Dose [Carcinogen]: 100 MG/KG BW DEN ONCE, 20 MG/KG BW MNU ONCE ON D 2, 5, 8 AND 11, 40 MG/KG BW DMH ON D 14, 17, 20 AND 23, 0.05% BHBN I, Dose [Carcinogen]: 100 MG/KG BW DEN ONCE, 20 MG/KG BW MNU ONCE ON D 2, 5, 8 AND 11, 40 MG/KG BW DMH ON D 14, 17, 20 AND 23, 0.05% BHBN I, Promoter: NONE USED): 6/20 (30%), 1/19 (5%), 83%, not calculated
tumour outcome (control, treated, inhibition, significance) (Carcinogen: DIETHYLNITROSAMINE, 55-18-5, N-METHYL-N-NITROSOUREA, 684-93-5, N,N'-DIMETHYLHYDRAZINE, 540-73-8, N-BUTYL-N-(4-HYDR, Carcinogen: DIETHYLNITROSAMINE, 55-18-5, N-METHYL-N-NITROSOUREA, 684-93-5, N,N'-DIMETHYLHYDRAZINE, 540-73-8, N-BUTYL-N-(4-HYDR, Dose [Inhibitor]: 0, 200 MG/KG BW IN CORN OIL 3/WK FOR 6 WK BEGINNING POST CARCINOGEN TREATMENT (STUDY DURATION: 28 WK), Route [Inhibitor]: GAVAGE, Species: RAT, Strain/Sex: F344/MALE, Target Tissue: Type of Lesion: LARGE INTESTINE: CARCINOMA, Dose [Carcinogen]: 100 MG/KG BW DEN ONCE, 20 MG/KG BW MNU ONCE ON D 2, 5, 8 AND 11, 40 MG/KG BW DMH ON D 14, 17, 20 AND 23, 0.05% BHBN I, Dose [Carcinogen]: 100 MG/KG BW DEN ONCE, 20 MG/KG BW MNU ONCE ON D 2, 5, 8 AND 11, 40 MG/KG BW DMH ON D 14, 17, 20 AND 23, 0.05% BHBN I, Promoter: NONE USED): 8/20 (40%), 7/19 (37%), 8%, not significant
tumour outcome (control, treated, inhibition, significance) (Carcinogen: DIETHYLNITROSAMINE, 55-18-5, N-METHYL-N-NITROSOUREA, 684-93-5, N,N-DIBUTYLNITROSAMINE, 924-16-3, Carcinogen: DIETHYLNITROSAMINE, 55-18-5, N-METHYL-N-NITROSOUREA, 684-93-5, N,N-DIBUTYLNITROSAMINE, 924-16-3, Dose [Inhibitor]: 0, 0.5% IN DIET BEGINNING POST CARCINOGEN TREATMENT AND CONTINUING TO WK 40 (STUDY DURATION: 40 WK), Route [Inhibitor]: ORAL, Species: RAT, Strain/Sex: F344/MALE, Target Tissue: Type of Lesion: LUNG: ADENOMA, Dose [Carcinogen]: 100 MG/KG DIETHYLNITROSAMINE ONCE FOLLOWED BY 20 MG/KG N-METHYL-N-NITROSOUREA ON D 2, 5, 8 AND 11 THEN 0.05% N-N-DIBUTYL, Promoter: NONE USED): 9/16 (56%), 2/18 (11%), 80%, p<0.01
